Measured values taken from patent US4473646A, “Stereospecific asparaginases” (Development Finance Corp. of New Zealand, priority 1980, dated 1984).

Key:
Assay type in all cases: biochemical
[1] = system: L-asparaginase THERMUS T-351 (ATCC No. 31,674); test: Asparaginase properties: inhibitors; conditions: inhibitor concentration not stated
[2] = system: D-asparaginase THERMUS T-351 (ATCC No. 31,674); test: Asparaginase properties: Km and inhibitors; conditions: for Inhibitors: loss of activity: inhibitor concentration not stated
[3] = biological target: T1, L-asparaginase E. COLI (B) (for comparison) (Escherichia coli, UniProt P00805); test: Asparaginase properties: Km and inhibitors (for comparison); conditions: inhibitor concentration not stated
T1 sequence (P00805 23-348): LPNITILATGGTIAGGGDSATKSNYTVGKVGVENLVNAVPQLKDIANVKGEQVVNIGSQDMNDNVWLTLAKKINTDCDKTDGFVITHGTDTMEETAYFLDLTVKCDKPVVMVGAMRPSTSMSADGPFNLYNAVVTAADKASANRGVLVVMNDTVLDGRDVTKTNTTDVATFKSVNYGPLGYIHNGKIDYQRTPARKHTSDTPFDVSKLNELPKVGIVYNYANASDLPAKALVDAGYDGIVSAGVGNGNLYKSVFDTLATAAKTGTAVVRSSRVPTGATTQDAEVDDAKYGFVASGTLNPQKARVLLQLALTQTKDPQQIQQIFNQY

Compound	Inhibitors: loss of activity [1]	Inhibitors: loss of activity [2]	Inhibitors: loss of activity [3]	Km ([2]; substrate not given, enzyme specific only for D-asparagine) [mM]
CC(N)=O [Acetamide]	No loss of activity	100%	No loss of activity	–
NC(=O)C[C@@H](N)C(=O)O [D-asparagine]	–	–	–	20
O=C(O)c1cc[c]([Hg][Cl])cc1 [pCMB]	100%	No loss of activity	No loss of activity	–
